The text below walks through data of paper PMC9197168, “Structural Characterization of Mycobacterium abscessus Phosphopantetheine Adenylyl Transferase Ligand Interactions: Implications for Fragment-Based Drug Design” (Frontiers in Molecular Biosciences, 2022).

As usually defined, the Kd is the equilibrium constant for the complex coming apart.

Like-named read-outs stand apart in the source and are kept apart here.

One assay concerns the target Mab PPAT (Mycobacteroides abscessus, UniProt B1MDL6). In words: Isothermal titration calorimetry (ITC) on Mab PPAT. The assay is classed as binding, Mycobacterium abscessus. To be noted: for Kd: ITC. The procedure:
ITC experiments were done using an ITC200 (MicroCal) instrument. The Mab PPAT protein for ITC was dialysed overnight at 4°C in storage buffer (50 mM Tris-HCl pH 8.0, 150 mM NaCl) the same buffer was used for preparing the ligand solutions. The protein and ligands/fragments were used at a concentration of 72 μM and 1–5 mM, respectively. ITC recorded for ATP was done in buffer: 50 mM Hepes pH 8.0, 150 mM NaCl, 5 mM MgCl2, at Mab PPAT concentration of 200 uM and 3 mM ATP. Buffer components and other constituents like DMSO were kept constant in both protein and ligand solutions. Ligands to buffer titrations were subtracted in all cases and experiments were repeated at least twice. Data were analysed using the Origin software (OriginLab, Northampton, MA, United States).

The target in the next assay is M. abscessus PPAT (Mycobacteroides abscessus, UniProt B1MDL6). The assay is classed as binding, Mycobacterium abscessus. To be noted: Table 1; 10 μM PPAT, 5 mM compound, 5% DMSO.
For assay [1], the system named is M. abscessus ATCC19977 whole-cell cultures. In words: Whole-cell luciferase-reporter based luminescence assay. Further details: species or system Mycobacterium abscessus. The following applies: up to a concentration of 200 µM; in comparison to positive control Amikacin; data not shown.
The next assay concerns the target Mtb PPAT. Further details: method as in El Bakali et al., 2020. The following applies: ref El Bakali et al., 2020; cited from earlier work.
Setting [2] is: Mab PPAT, 50 mM Tris-HCl pH 8.0, 150 mM NaCl, read-out: Kd.
Setting [3] is: Mab PPAT 72 μM, 50 mM Tris-HCl pH 8.0, 150 mM NaCl, read-out: Kd (Mab PPAT).

Mab PPAT, sequence (B1MDL6 whole entry, the tested form may be a part): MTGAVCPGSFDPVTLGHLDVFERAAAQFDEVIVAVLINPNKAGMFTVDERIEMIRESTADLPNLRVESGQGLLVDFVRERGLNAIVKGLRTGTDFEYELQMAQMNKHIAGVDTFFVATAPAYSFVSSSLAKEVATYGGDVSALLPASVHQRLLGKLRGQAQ
M. abscessus PPAT, sequence (B1MDL6 whole entry): as the sequence (B1MDL6 whole entry, the tested form may be a part) above

As for `O=C(O)CCc1c[nH]c2ccccc12` [Fragment 5], on Mab PPAT (setting [2]), the Kd was found to be 3200 ± 20 µM. Moreover, the ΔΤm entry on M. abscessus PPAT is “+3.5 °C”.

On to `O=C(O)c1ccc2cc(F)ccc2c1` [Fragment 8], for which the ΔΤm entry on M. abscessus PPAT is “+2.9 °C”. As for `Cc1c(C(=O)O)cnn1-c1ccccc1` [Fragment 1], at Mab PPAT (setting [2]), the Kd came out at 540 ± 20 µM. Also, the ΔΤm entry at M. abscessus PPAT was “+6 °C”. With `N#Cc1ccc(Cl)cc1N` [Fragment 13], the ΔΤm entry at M. abscessus PPAT is “+1.5 °C”. As to `O=C(O)c1ccc2[nH]nc(Br)c2c1` [Fragment 2], the ΔΤm entry on M. abscessus PPAT is “+12.5 °C”. In the case of `O=C(O)CCn1ccc2ccccc21` [Fragment 14], the ΔΤm result on M. abscessus PPAT is “+1 °C”. Still for that read-out and setting: as for `Cc1ccc(C(=O)O)c(C(=O)O)n1` [Fragment 10], the entry is “+2.0 °C”. As to `CC(C)(COP(=O)(O)OP(=O)(O)OC[C@H]1O[C@@H](n2cnc3c(N)ncnc32)[C@H](O)[C@@H]1OP(=O)(O)O)[C@@H](O)C(=O)NCCC(=O)NCCS` [Coenzyme A, reference compound], at Mab PPAT (setting [3]), the Kd worked out at 8.2 ± 1.1 µM. Regarding `O=C(O)Cn1ccc2ccccc21` [Fragment 16], at M. abscessus PPAT, the ΔΤm was -0.5 °C. Still for that read-out and setting: as for `O=C(O)C(O)Cc1c[nH]c2ccccc12` (stereo not shown) [Fragment 12], the entry is “+1.5 °C”; as for `O=C(O)c1cc2ccccc2cc1O` [Fragment 11], “+2.0 °C”; as for `O=C(O)c1cc2cc(F)ccc2[nH]1` [Fragment 7], “+3.5 °C”. Turning to `O=C(O)c1ccccc1C(=O)c1ccc(Cl)c([N+](=O)[O-])c1` [Fragment 6], the ΔΤm entry on M. abscessus PPAT was “+4.5 °C”.

On to `Nc1ncnc2c1ncn2[C@@H]1O[C@H](COP(=O)(O)OP(=O)(O)OP(=O)(O)O)[C@@H](O)[C@H]1O` [ATP, Adenosine 5′ triphosphate, reference compound], for which the Kd at Mab PPAT (50 mM Hepes pH 8.0, 150 mM NaCl, 5 mM MgCl2, Mab PPAT 200 uM, 3 mM ATP, read-out: Kd) was determined as 20.1 ± 3.3 µM.

Consider `Cc1cn(CCC(=O)O)c2ccccc12` [Fragment 3], for which, on M. abscessus PPAT, the ΔΤm result was “+0.5 °C”. For `O=C(O)c1cnn(-c2ccccc2)c1OCCCc1c[nH]c2ccccc12` [Compound 20], the results for the Kd on Mab PPAT (setting [3]) and on Mtb PPAT were 3.2 ± 0.8 µM and 15 ± 4 µM, respectively. For the same compound, the “binding affinity on Mab PPAT relative to that on Mtb PPAT” value on Mab PPAT (Mab PPAT versus Mtb PPAT (Kd 15 ± 4 µM)) is listed as ~5 fold. Also, the “affinity relative to affinity of Mab PPAT for the substrate ATP” value at Mab PPAT (Mab PPAT, compound versus ATP) is listed as “≈ 7 fold”. In assay [1], the “cellular activity on whole-cell cultures” value is “low cellular activity”.

With `O=C(O)C(O)c1cccc(Oc2ccccc2)c1` (stereo not shown) [Fragment 4], at M. abscessus PPAT, the ΔΤm entry is “+2.5 °C”. As to `O=C(O)Cc1ccc2ccccc2c1` [Fragment 9], on M. abscessus PPAT, the ΔΤm result is “+2.3 °C”. With `Cc1ccc2oc(=O)cc(O)c2c1` [Fragment 15], on M. abscessus PPAT, the ΔΤm result is “+0.5 °C”.
